Results: a melting point compilation (Tetko et al.)

| melting point [°C] | SMILES |
| --- | --- |
| 185 to 187 | O=C(O)CNC(=O)c1cccc(OCc2ccccc2)c1 |
| 282 to 284 | O=C(Cc1ccc(Br)cc1)Nc1ccc(C(=O)O)cc1 |
| 179 to 181 | O/N=C/c1c(Cl)ncn1-c1ccccc1 |
| 71 to 73 | ClCc1ccc(-c2ccccc2)cc1 |
| 215 to 217 | O=C(O)c1cccnc1Nc1ccccc1F |
| 159 to 161 | CC(=O)Oc1ccc(C(=O)O)cc1OC(C)=O |
| 131 to 133 | COCCn1cnc2c1c(=O)n(CC(=O)O)c(=O)n2Cc1ccccc1 |
| 147 to 149 | Cc1ccc(CNC(=S)Nc2ccccc2)cc1 |
| 89 to 91 | Cc1ccc(C)c(C(=O)c2cccc(S(C)(=O)=O)c2)c1 |
| 53 to 55 | O=C(CCl)NCc1cccc(F)c1 |
| 113 to 115 | O=C(NCC(F)(F)F)c1ccc(O)cc1 |
| 198 to 200 | COc1cccc(C(N)C(=O)O)c1 (stereo not drawn) |
| 266 to 268 | O=C(O)CNc1ccc(C(=O)O)cc1 |
| 168 to 172 | C#CCNS(=O)(=O)c1cccc(C(=O)O)c1 |
| 100 to 102 | CC(C)(C)c1noc(-c2ccccc2C(=O)O)n1 |
| 123 to 125 | O=C(O)CC(c1ccccc1)N1CCOC1=O (stereo not drawn) |
| 120 to 122 | COC(=O)Nc1ccccc1O |
| 129 to 131 | Nc1cc(-c2ccoc2)nn1-c1ccccc1 |
| 154 to 156 | O=C(O)C1CN(C(=O)c2ccco2)c2ccccc2O1 (stereo not drawn) |
| 217 to 219 | O=C(O)c1cc(S(=O)(=O)Nc2ccc(Br)cc2)ccc1Cl |
| 91 to 93 | COc1cc(-c2ccccc2)ccc1C=O |
| 102 to 104 | NS(=O)(=O)CCOc1ccccc1 |

| melting point [°C] | SMILES |
| --- | --- |
| 199 to 201 | NC(C(=O)O)c1ccccc1Br (stereo not drawn) |
| 188 to 190 | COc1ccc(-c2nn(-c3ccccc3)cc2C(=O)O)cc1OC |
| 164 to 166 | O=C(O)C=Cc1ccccc1OC(F)F |
| 276 to 278 | Nc1cc(C(=O)O)nc2ccccc12 |
| 183 to 185 | CCN(Cc1ccccc1)c1ccc(C(=O)O)cc1 |
| 49 to 51 | CCOc1ccc2ccccc2c1CO |
| 230 to 232 | O=C(O)C(NCc1ccccc1)c1ccc(C(F)(F)F)cc1 (stereo not drawn) |
| 181 to 183 | NC(=S)c1cnn(-c2ccccc2)c1 |
| 147 to 149 | Nc1ccccc1OCCN1CC(=O)Nc2ccccc21 |
| 171 to 173 | COc1cc(C(=O)O)ccc1OC(F)F |
| 75 to 77 | O=C(c1ccccc1)c1ccc(Cl)cc1O |
| 157 to 159 | O=S(=O)(Nc1nc2ccccc2nc1Cl)c1ccccc1C(F)(F)F |
| 99 to 101 | CCOC(=O)c1nn(-c2ccccc2)cc1C=O |
| 136 to 138 | CCc1sc(=O)[nH]c1-c1ccccc1 |
| 99 to 101 | Nc1ccc(CCn2nnc(-c3ccccc3)n2)cc1 |
| 73 to 75 | CN(C)Cc1c(O)ccc2ccccc12 |
| 113 to 115 | O=C(O)c1cccc(OCc2ccccc2)c1 |
| 157 to 159 | N#CCc1cccc(C(N)=O)c1 |
| 240 to 242 | O=C(O)c1ccc(NS(=O)(=O)c2ccc(F)cc2)cc1 |
| 157 to 159 | O=C(O)C1CC(O)CN1C(=O)COc1ccccc1 (stereo not drawn) |
| 208 to 210 | N#Cc1ccc(CSc2ccccc2C(=O)O)cc1 |
| 194 to 196 | O=C(O)CC(O)(c1nc2ccccc2o1)C(F)(F)F (stereo not drawn) |

The next lines start with the compound.

| SMILES | melting point [°C] |
| --- | --- |
| COC(=O)c1c[nH]c(C)n1 | 136 to 138 |
| Cc1ccc(N2CCCC(Br)C2=O)cc1 (stereo not drawn) | 96 to 98 |
| NNC(=O)Cc1csc(N2CCOCC2)n1 | 168 to 170 |
| O=C(O)c1nn(-c2ccc(Br)cc2)c2c1CCCC2 | 232 to 234 |
| CC(=O)c1c[nH]c(C(=O)C(Cl)(Cl)Cl)c1 | 190 to 192 |
| O=C(O)c1nnn(-c2cccc(F)c2)c1C1CC1 | 149 to 151 |
| O=C(NC1CC1)c1cc(Br)c[nH]1 | 144 to 146 |
| Clc1cccc2c1NCC2 | 29 to 31 |
| N#Cc1ccnc(OC2CCC2)c1 | 39 to 41 |
| N#Cc1cccc(OCC(F)(F)F)n1 | 51 to 53 |
| NC(=O)C1CCN(CC(=O)c2ccc(Cl)cc2)CC1 | 164 to 166 |
| O=C(O)c1cc(S(=O)(=O)N2CCCCC2)ccc1N1CCCC1 | 120 to 122 |
| Cc1cc(C(=O)O)c(C)n1Cc1ccco1 | 170 to 172 |
| NCCCN1C(=O)NC2(CCCCC2)C1=O | 124 to 126 |
| CC(=O)NCc1ccc(Br)cc1 | 114 to 116 |
| Nc1cc2c(cc1F)CCC(=O)N2 | 174 to 176 |
| Cc1cc(NC(=O)C2CCCCC2C(=O)O)[nH]n1 (stereo not drawn) | 114 to 116 |
| NC(=S)NCc1ccc(Br)cc1 | 159 to 161 |
| Cc1sc(C(=O)O)cc1CS(C)(=O)=O | 233 to 235 |
| COC(=O)C(=O)CC(=O)c1ccc(Cl)cc1Cl | 118 to 120 |
| Nc1cccc(-c2nnco2)c1 | 66 to 68 |
| Nc1ncc(CCC(=O)O)s1 | 195 to 197 |
| Nc1nc(-c2cc(Cl)ccc2Cl)cs1 | 161 to 165 |
| O=C(CCl)Nc1ncc(Cc2ccc(F)cc2)s1 | 149 to 151 |
| Cc1csc(CC(N)=NO)n1 | 126 to 128 |

| SMILES | melting point [°C] |
| --- | --- |
| Cc1ccc(CN)c(S(C)(=O)=O)c1 | 32 to 34 |
| COc1ccccc1OCCBr | 39 to 41 |
| Cc1ccc(N)cc1S(=O)(=O)Nc1ccc(Cl)cc1 | 144 to 146 |
| O=C1CCCC(N2C(=O)c3ccccc3C2=O)C1 (stereo not drawn) | 147 to 149 |
| O=S(=O)(Cl)c1cc2c(cc1Br)OCCO2 | 173 to 175 |
| Cn1c(C(=O)O)cc2cc(C(F)(F)F)ccc21 | 199 to 201 |
| Cc1sc(N)nc1C(C)C | 107 to 109 |
| CSc1cc(C)ccc1C(=O)O | 176 to 178 |
| Cc1cc(NC(=O)C(C)Cl)ccc1Br (stereo not drawn) | 149 to 151 |
| CN(C)CCOc1cc(N)ccn1 | 87 to 89 |
| COC(=O)c1ccc(-c2csc(N)n2)cc1 | 239 to 241 |
| CCOC(=O)CO/N=C(\C(=O)O)c1cc[nH]n1 | 128 to 130 |
| Nc1cc(F)c(N2CCCCC2)c(F)c1 | 70 to 72 |
| CC(Cl)C(=O)c1c[nH]c2ccccc12 (stereo not drawn) | 190 to 192 |
| COc1cc(C=O)cc2sc(=O)oc12 | 160 to 162 |
| Clc1ccc2[nH]c3c(c2c1)CNCC3 | 226 to 228 |
| Cc1cc(=O)n2c(n1)NCC2 | 159 to 161 |
| CC(C)Cc1ccc(C2(C)NC(=O)NC2=O)cc1 (stereo not drawn) | 178 to 180 |
| CC(C)Cc1nc(C(=O)O)cs1 | 104 to 106 |
| O=C(O)c1cc(S(=O)(=O)N2CCOCC2)ccc1Br | 188 to 190 |
| NC(=O)c1cccc(F)c1I | 189 to 191 |
| NCC(O)c1ccccc1C(F)(F)F (stereo not drawn) | 106 to 108 |
| CNC(=O)c1cc(Oc2cc(N)ccc2C)ccn1 | 141 to 143 |
| NC(=S)Cc1cccc(F)c1 | 69 to 71 |
| O=C1CC(c2cccnc2)CN1 (stereo not drawn) | 69 to 71 |

| SMILES | melting point [°C] |
| --- | --- |
| O=c1ccc(Cl)n[nH]1 | 138 to 140 |
| Cn1ccnc1C(=O)c1ccc(Cl)c([N+](=O)[O-])c1 | 145 to 147 |
| Cc1cc(S(=O)(=O)Cl)ccc1OC(C)C | 50 to 52 |
| CNc1ccncn1 | 77 to 79 |
| O=C(O)c1cc(S(=O)(=O)NC2CC2)ccc1Br | 221 to 223 |
| CCOC(=O)c1cc(C2CC2)[nH]n1 | 98 to 100 |
| CC(C)(C)CNc1cccnc1 | 62 to 64 |
| O=C1CN(CCOc2ccc(Br)cc2)CCN1 | 111 to 113 |
| Cc1nc(C2(NC(=O)CCl)CCCCC2)no1 | 93 to 95 |
| Cc1c(N)cccc1CN1CCSCC1 | 80 to 82 |
| O=C1COc2ccc(Br)cc21 | 111 to 113 |
| Cn1ncc2c(=O)[nH]nnc21 | 152 to 154 |
| Cc1ccc(S(=O)(=O)Cl)c(C)c1C(=O)O | 147 to 149 |
| OCc1c(Cl)nc(Cl)n1-c1ccccc1 | 139 to 141 |
| N#CCC(=O)c1ccc(Br)s1 | 143 to 145 |
| Cc1nn(-c2ccc(Cl)cc2)cc1C=O | 121 to 123 |
| CCN(CC)S(=O)(=O)c1ccc(NN)nc1 | 134 to 136 |
| Cc1cccc(-n2c(C)cc(C(=O)CCl)c2C)c1 | 99 to 101 |
| Nc1cc(C(=O)O)c(Br)cn1 | 276 to 278 |
| Cc1cc(=O)[nH]cn1 | 138 to 140 |
| Cc1n[nH]c(C(=O)O)c1C | 288 to 290 |
| NC(=S)CN1CCOCC1 | 178 to 180 |
| Cc1c(C)n(Cc2ccco2)c2ncnc(N)c12 | 180 to 182 |
| NC(=O)c1c(N)sc2c1-c1ccccc1CCC2 | 145 to 147 |
| NS(=O)(=O)c1nc2ccccc2[nH]1 | 215 to 217 |

| SMILES | melting point [°C] |
| --- | --- |
| O=C1CC(C(F)(F)F)NCCN1 (stereo not drawn) | 136 to 138 |
| NC(=NO)c1ccc(N2CCCCC2)cc1 | 169 to 171 |
| CC(Oc1ccc(C23CC4CC(CC(C4)C2)C3)cc1)C(=O)O (stereo not drawn) | 153 to 155 |
| Cc1cnc(=S)[nH]c1 | 239 to 241 |
| COC(=O)Cc1nnc(N)[nH]1 | 159 to 161 |
| NS(=O)(=O)CC1CC1 | 45 to 47 |
| Nc1ccc(C2(c3ccc(N)cc3)CCCCC2)cc1 | 110 to 112 |
| Nc1nc2ccccc2nc1N1CCCC1 | 149 to 151 |
| Cc1cc(=O)n2c([nH]c3ccccc32)c1C#N | 270 to 272 |
| CN1CC(=O)N(c2cccc([N+](=O)[O-])c2)C1=O | 144 to 146 |
| CCCNS(=O)(=O)c1ccc(/C=C/C(=O)O)cc1 | 235 to 237 |
| Nc1ccccc1C(O)C(F)(F)F (stereo not drawn) | 119 to 121 |
| Nc1ccc(C(=O)N2CCCCC2)nc1 | 170 to 172 |
| O=c1[nH]c2ccc(S(=O)(=O)Cl)cc2[nH]1 | 210 to 212 |
| Cc1cccc(-c2nc3cc(Cl)ccc3[nH]2)c1O | 249 to 251 |
| CCN1C(=C2C=NN(C)C2=N)Nc2ccccc21 | 111 to 113 |
| CCC(=O)Nc1ccc(C#N)cc1 | 174 to 176 |
| CC(NC(=O)CCl)c1ccc(F)cc1 (stereo not drawn) | 71 to 73 |
| NCCS(=O)(=O)N1CCSCC1 | 59 to 61 |
| Nc1nc2c(F)c(Cl)ccc2s1 | 80 to 82 |
| O=C(CCl)Nc1nnc(-c2ccco2)o1 | 194 to 196 |
| O=C(O)/C=C/c1ccc2c(c1)CCO2 | 175 to 177 |
| Cc1ccc(C(=O)N2CCSCC2)cc1O | 159 to 161 |
| CC(C)N1CCC(C(=O)O)CC1 | 168 to 170 |
